Measured values published in article PMC7032066 (Insect biochemistry and molecular biology, 2019).
Starred links: 1 amine or outer side, 2 acyl side, 3 side chain; linkers in the order of their positions; H or OH if unused. Non-standard residues stand in square brackets, D forms with d. Residues, ends and D or L forms follow the SMILES beside them. Mur = C[C@@H](O[C@H]1[C@H](O)[C@@H](CO)OC(O)[C@@H]1N[*:1])C(=O)[*:2]; d(isoGln) = NC(=O)[C@@H](CCC(=O)[*:2])N[*:1]

Biological target: T1, M. sexta PGRP1 (Manduca sexta, UniProt Q86RS6)
T1 sequence (Q86RS6 20-191): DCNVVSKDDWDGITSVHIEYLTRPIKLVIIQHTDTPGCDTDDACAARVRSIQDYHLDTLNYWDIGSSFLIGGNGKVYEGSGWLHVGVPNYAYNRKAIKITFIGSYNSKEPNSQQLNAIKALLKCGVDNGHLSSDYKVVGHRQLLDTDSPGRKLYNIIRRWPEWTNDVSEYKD
Experiment: SPR
Type: binding
Conditions: HBS-EP pH 7.4 (10 mM HEPES, 150 mM NaCl, 3 mM EDTA, 0.005% polysorbate 20), 25°C

Work on CC(=O)N[C@H]1C(O)O[C@H](CO)[C@@H](O)[C@@H]1O[C@H](C)C(=O)N[C@@H](C)C(=O)N[C@H](CCC(=O)N[C@@H](CCCCN)C(=O)N[C@H](C)C(=O)N[C@H](C)C(N)=O)C(N)=O (stereo partly shown) [Lys-MPP] (Ac-[Mur]A[d(isoGln)]K[dA][dA]-NH2) yielded a Kd of 45.6 µM.
